US11773108B2, “Indene derivatives useful in treating pain and inflammation” (TARO PHARMACEUTICALS INC., priority 2018, dated 2023)
Read-outs that look alike come from different tables or passages of the source.

Tests used:
[1] = Metabolism by human liver microsomes; assay type: in vitro ADME; conditions: human liver microsomes 1 mg/mL protein, 10 μM, in the presence of NADPH, LC-MS/MS
Method: Representative compounds of the invention (i.e., test compounds) and the positive control, 7-ethoxycoumarin, were prepared as stock solutions at 10 mM in DMSO and eventually diluted to 10 μM in the test plate, with an appropriate amount of acetonitrile and tris HCl buffer. Final DMSO and acetonitrile concentrations were […] and 0.5% respectively. NADPH was prepared in tris HCl buffer to a stock of 10 mM. A frozen aliquot of liver microsomes was retrieved from the freezer (−80° C.) and thawed by placing the tube on wet ice. After thawing, the tubes were gently mixed and the required amount, transferred to tris HCl buffer. Test compounds or positive control were pre-incubated, separately, for 10 minutes, with liver microsomes (1 mg/mL protein), at 37° C., in 100 mM Tris HCl at pH 7.5. After preincubation the reaction was started by adding 1 mM NADPH (pre-equilibrated to 30° C.) and the reaction allowed to proceed for 60 minutes. At 60 minutes, a 50 μL aliquot was removed and quenched with 200 uL of acetonitrile containing a mixture of internal standards (Tolbutamide (500 ng/mL) and Telmistartan (500 ng/mL)) and vortexed then centrifuged at 4000 rpm for 10 minutes (Eppendorf 5810R). The supernatant was transferred to a 96 well plate for LC-MS/MS analysis.
An LC-MS/MS method was devised for the test compounds and the control, using a AB Sciex API 4000 system coupled to a NEXAR™ UHPLC (Shimadzu) system. Analytes were separated on a Phenomenex Kinetex C18 column (50×2.1 mm, 5 μm) using a gradient that was appropriate for each compound, at a flow rate of 1 ml/minute, utilizing a mobile phase of 0.1% formic acid in MILLI-Q™ water (A) and 0.1% formic acid in acetonitrile (B). The MS instrument was operated in positive mode (ESI+)/negative (ESI−). The multiple reaction monitoring (MRM) transition for test and control compounds was used for the LC-MS/MS analysis. MRM transitions for control compound 7-ethoxycoumarinm were Quadropole 1: 191.0, Quadropole 3:163.0, dwell time: 75 msec, using curtain gas settings of 5 V, ion-spray voltage of 5500 V, temperature of 50° C. and gas settings for nebulizer and auxiliary set to 30 and 40 psi, respectively. The interface heater was kept on. Entrance potential and collision cell exit potential were varied to tune for a specific compound.
Using a suitable LC-MS/MS method, the percentage of drug remaining at 60 minutes ([…]) was assessed by comparing the average analyte to internal standard area ratio at 60 minutes to the average analyte to internal standard area ratio at 0 time control, as a percentage, from a 5 to 10 μL sample injection.
According to the above assay, the test compounds listed in Table 7 below were active in the Human liver microsome assay at 10 μM and the % of drug remaining after 60 minutes (PDR60), in the presence of NADPH, was assessed by LC-MS/MS. Average PDR60 for the standard compound, 7-ethoxycoumarin was <=65% in the presence of NADPH. Scoring for the test compounds, in the presence of NADPH, was as follows: “A” represents a PDR60 of 81 to 100%, “B” represents a PDR60 of 61 to 80%, “C” represents a PDR60 of 31 to 60% and “D” represents a PDR60 of 0 to 30%.

[2] = test system: rat dorsal root ganglion (DRG) cells; experiment: Rat dorsal root ganglion (DRG) excitability response to electrical field stimulation; assay type: cell-based; conditions: adult rat DRG cells
Method: Rat Dorsal Root Ganglion Excitability Response of Representative Compounds Dorsal root ganglions (DRGs) were dissected from adult rats. The tissue was processed, and cells were seeded into cell culture plates (48 center wells of one quadrant in 384-well plates) and cultured for 2 days prior to Electrical field stimulation (EFS). To visualize the neuronal excitability response, intracellular Ca^+2 transients were monitored using the Ca^+2 indicator, Ca5. Ca5 was added to the cultures 1 h prior to EFS. Representative compounds of the invention (i.e., test compounds) and reference compound, tetracaine, were added in concentration-response format encompassing six concentrations, performed in duplicate. The highest concentration tested was typically 30 μM with 1 in 3 dilutions generating the subsequent concentrations.
Effects on DRG excitability by the test compounds and standard were evaluated using four EFS protocols as disclosed in Table 2.
Experimental results were performed using two seperate sets of plates using separate test compound and standard dilutions, to provide n=2. In the first set of experiments, compounds were added 24 h prior to EFS to increase the possibility to also detect more long-term compound effects. In the second set of experiments the compounds were added directly prior to EFS. Excitability response to EFS was analyzed as the average fluorescence ratio (peak/baseline) change per well. All plates were evaluated using high content imaging equipment post-EFS, imaging the Ca5 background staining to detect any possibile compound-related toxic effects.
Average response by the reference compound, tetracaine, was 4.05 μM.

[3] = Ca5 Ca2+ indicator, six concentrations, highest typically 30 μM, read-out: Scoring: EC50, modulation of rat DRG excitability

SMILES	Scoring: % of drug remaining after 60 minutes (PDR60) [1]	EC50 [2, 3] [µM]	EC50 ([2]; reference compound, read-out: Average response (rat DRG excitability)) [µM]
C=C1CC[C@H]2[C@H](CN)[C@@H]([C@@]3(C)Cc4cnn(-c5ccc(F)cc5)c4C[C@@H]3CO)CC[C@]12C [Ia-12, ((5R,6S)-5-((3aS,4R,5S,7aS)-4-(aminomethyl)-7a-methyl-1-methyleneoctahydro-1H-inden-5-yl)-1-(4-fluorophenyl)-5-methyl-4,5,6,7-tetrahydro-1H-indazol-6-yl)methanol]	D (“D” represents a PDR60 of 0 to 30%)	< 2	
C=C1CC[C@H]2[C@H](CN)[C@@H]([C@@]3(C)Cc4cn(-c5ncc(F)cn5)nc4C[C@@H]3CO)CC[C@]12C [Ia-27, ((5R,6S)-5-((3aS,4R,5S,7aS)-4-(aminomethyl)-7a-methyl-1-methyleneoctahydro-1H-inden-5-yl)-2-(5-fluoropyrimidin-2-yl)-5-methyl-4,5,6,7-tetrahydro-2H-indazol-6-yl)methanol]	C (“C” represents a PDR60 of 31 to 60%)	6 to 15	
C[C@H]1CC[C@H]2[C@H](CN)[C@@H]([C@@]3(C)Cc4cnn(-c5ccc(F)cc5)c4C[C@@H]3CO)CC[C@]12C [Ia-47, ((5R,6S)-5-((1S,3aS,4S,5S,7aR)-4-(aminomethyl)-1,7a-dimethyloctahydro-1H-inden-5-yl)-1-(4-fluorophenyl)-5-methyl-4,5,6,7-tetrahydro-1H-indazol-6-yl)methanol]		< 2	
C=C1CC[C@H]2[C@H](CN)[C@@H]([C@@]3(C)Cc4cn(-c5ccc(OC)cc5)nc4C[C@@H]3CO)CC[C@]12C [Ia-15, ((5R,6S)-5-((3aS,4R,5S,7aS)-4-(aminomethyl)-7a-methyl-1-methyleneoctahydro-1H-inden-5-yl)-2-(4-methoxyphenyl)-5-methyl-4,5,6,7-tetrahydro-2H-indazol-6-yl)methanol]	B (“B” represents a PDR60 of 61 to 80%)	6 to 15	
COc1ccc(Cn2cc3c(n2)C[C@H](CO)[C@@](C)([C@H]2CC[C@]4(C)[C@@H](C)CC[C@H]4[C@@H]2CN)C3)cc1 [Ia-52, ((5R,6S)-5-((1S,3aS,4S,5S,7aR)-4-(aminomethyl)-1,7a-dimethyloctahydro-1H-inden-5-yl)-2-(4-methoxybenzyl)-5-methyl-4,5,6,7-tetrahydro-2H-indazol-6-yl)methanol]	A (“A” represents a PDR60 of 81 to 100%)	< 2	
CCCCNc1ccc(C(=O)OCCN(C)C)cc1 [tetracaine, reference compound]			4.05
C=C1CC[C@H]2[C@H](CN)[C@@H]([C@@]3(C)Cc4cnn(-c5ncc(F)cn5)c4C[C@@H]3CO)CC[C@]12C [Ia-26, ((5R,6S)-5-((3aS,4R,5S,7aS)-4-(aminomethyl)-7a-methyl-1-methyleneoctahydro-1H-inden-5-yl)-1-(5-fluoropyrimidin-2-yl)-5-methyl-4,5,6,7-tetrahydro-1H-indazol-6-yl)methanol]	D (“D” represents a PDR60 of 0 to 30%)	6 to 15	
C=C1CC[C@H]2[C@H](CN)[C@@H]([C@@]3(C)Cc4cnn(-c5ccc(Oc6ccccc6)cc5)c4C[C@@H]3CO)CC[C@]12C [Ia-28, ((5R,6S)-5-((3aS,4R,5S,7aS)-4-(aminomethyl)-7a-methyl-1-methyleneoctahydro-1H-inden-5-yl)-5-methyl-1-(4-phenoxyphenyl)-4,5,6,7-tetrahydro-1H-indazol-6-yl)methanol]	B (“B” represents a PDR60 of 61 to 80%)	< 2	
C=C1CC[C@H]2[C@H](CN)[C@@H]([C@@]3(C)Cc4cnn(-c5ccc(F)c(F)c5)c4C[C@@H]3CO)CC[C@]12C [Ia-22, ((5R,6S)-5-((3aS,4R,5S,7aS)-4-(aminomethyl)-7a-methyl-1-methyleneoctahydro-1H-inden-5-yl)-1-(3,4-difluorophenyl)-5-methyl-4,5,6,7-tetrahydro-1H-indazol-6-yl)methanol]	D (“D” represents a PDR60 of 0 to 30%)	< 2	
C=C1CC[C@H]2[C@H](CN)[C@@H]([C@@]3(C)Cc4cnn(Cc5ccc(F)cc5)c4C[C@@H]3CO)CC[C@]12C [Ia-18, ((5R,6S)-5-((3aS,4R,5S,7aS)-4-(aminomethyl)-7a-methyl-1-methyleneoctahydro-1H-inden-5-yl)-1-(4-fluorobenzyl)-5-methyl-4,5,6,7-tetrahydro-1H-indazol-6-yl)methanol]		< 2	
C=C1CC[C@H]2[C@H](CN)[C@@H]([C@@]3(C)Cc4cnn(-c5ccc(C(=O)c6ccccc6)cc5)c4C[C@@H]3CO)CC[C@]12C [Ia-20, (4-((5R,6S)-5-((3aS,4R,5S,7aS)-4-(aminomethyl)-7a-methyl-1-methyleneoctahydro-1H-inden-5-yl)-6-(hydroxymethyl)-5-methyl-4,5,6,7-tetrahydro-1H-indazol-1-yl)phenyl)(phenyl)methanone]	B (“B” represents a PDR60 of 61 to 80%)	< 2	
C=C1CC[C@H]2[C@H](CN)[C@@H]([C@@]3(C)Cc4cnn(-c5ccc(Oc6ccc(C(=O)O)cc6)cc5)c4C[C@@H]3CO)CC[C@]12C [Ia-36, 4-(4-((5R,6S)-5-((3aS,4R,5S,7aS)-4-(aminomethyl)-7a-methyl-1-methyleneoctahydro-1H-inden-5-yl)-6-(hydroxymethyl)-5-methyl-4,5,6,7-tetrahydro-1H-indazol-1-yl)phenoxy)benzoic acid]	A (“A” represents a PDR60 of 81 to 100%)	> 15	
C=C1CC[C@H]2[C@H](CN)[C@@H]([C@@]3(C)Cc4cn(-c5ccc(Oc6ccccc6)cc5)nc4C[C@@H]3CO)CC[C@]12C [Ia-29, ((5R,6S)-5-((3aS,4R,5S,7aS)-4-(aminomethyl)-7a-methyl-1-methyleneoctahydro-1H-inden-5-yl)-5-methyl-2-(4-phenoxyphenyl)-4,5,6,7-tetrahydro-2H-indazol-6-yl)methanol]	C (“C” represents a PDR60 of 31 to 60%)	< 2	
C=C1CC[C@H]2[C@H](CN)[C@@H]([C@@]3(C)Cc4cnn(-c5ccc(Oc6ccc(F)cc6)cc5)c4C[C@@H]3CO)CC[C@]12C [Ia-24, ((5R,6S)-5-((3aS,4R,5S,7aS)-4-(aminomethyl)-7a-methyl-1-methyleneoctahydro-1H-inden-5-yl)-1-(4-(4-fluorophenoxy)phenyl)-5-methyl-4,5,6,7-tetrahydro-1H-indazol-6-yl)methanol]	B (“B” represents a PDR60 of 61 to 80%)	< 2	
